Assay results published in patent publication US10092599B2, “Methods for enhancing hematopoietic stem/progenitor cell engraftment” (CHILDREN'S MEDICAL CENTER CORPORATION, priority 2009, dated 2018).

Tested on: hematopoietic stem/progenitor cell engraftment
Test: adult zebrafish whole kidney marrow competitive transplantation assay
Type: in vivo
Settings: for engraftment signal in pilot screen of 10 bioactive compounds: by four weeks post-transplant, 10 recipients per treatment; for average G/R / percentage of positive recipients: green marrow incubated in vitro 4 hrs, mixed with red marrow 1:4, 4 wpt, compared with DMSO control; for engraftment: by 4 weeks post transplant
From the text: A transparent adult zebrafish, casper, was used as a transplantation recipient. Casper is a double homozygous pigment mutant for the nacre allele (devoid of melanocytes) and the roy allele (devoid of iridophores and reduced melanoyctyes), which allows direct visualization of GFP labeled hematopoietic stem cell homing and engraftment without killing the recipients. Two marrows are used: Tg(β-actin:GFP) and Red GloFish® respectively to compete with each other at varying ratios e.g., 1:4, which can generate robust competition between the two donors. In one embodiment, the red marrow is the competitor, as well as an internal control for the transplant. At different timepoints post-transplant, the recipients are anesthetized and two pictures for each recipient are taken by a fluorescence stereomicroscope with GFP/DsRed filters individually. Images are analyzed by software, such as ImageJ, which can quantify the GFP/DsRed fluorescence intensity. The relative engraftment efficiency of the manipulated green marrow is measured by the ratio of the GFP intensity over the DsRed intensity within the same kidney region after background subtraction (labeled as G/R).
A double-color labeled competitive transplantation assay was developed, as shown by the flow chart in FIG. 1A. GFP+ and DsRed2+ marrow cells are isolated from Tg(β-actin:GFP) and commercially available Red GloFish®. The two donor populations are mixed at a certain ratio and injected into sublethally irradiated casper recipients retro-orbitally. The DsRed2+ marrow is used as the competitor. Four weeks later, the engraftment is visualized by fluorescence dissection scope. Pictures of GFP and DsRed engraftment are taken for each recipient and analyzed by ImageJ. The kidney region is manually selected and the average fluorescence intensities of both green and red are measured within the same region. The average background intensity is measured in a region outside the fish, and subtracted from the kidney intensity. The calculation of the relative engraftment is shown by the equation in FIG. 1B.
Adult zebrafish donors are anaesthetized with 0.2% tricaine before blood and kidney collection. Peripheral blood is obtained from adult casper by cardiac puncture with micropipette tips coated with heparin and collected into 0.9×PBS containing 5% FCS. About 3-5 million red blood cells are harvested from one donor. To dissect whole kidney marrow (WKM), a ventral midline incision is made on the donor fish. Whole kidney is dissected out and placed into ice-cold 0.9×PBS containing 5% FCS. Single-cell suspensions are generated by aspiration followed by filtering through a […] nylon mesh filter into a 50 ml conical tube. The flow-though part is diluted with a final volume of 25 ml and centrifuged at 1,500 rpm for 8 minutes. The supernatant is discarded and the pellet cells are resuspended in 1 ml 0.9×PBS containing 5% FCS. The number of viable cells are counted with a hemocytometer. […] Finally, the peripheral blood and kidney marrow cells are centrifuged at 1,500 rpm for 8 minutes, resuspended in 0.9×PBS containing 5% FCS and mixed at a certain ratio and concentration. Casper recipients are anesthetized in tricaine. 4 μl of the cell suspension mixture described above is injected into the circulation retro-orbitally through a Hamilton syringe (26s gauge, 10 μl volume). […] Transplanted recipients can be anesthetized in tricaine and visualized over time on a Zeiss Discovery V8 stereomicroscope with a 1.2× PlanApo lens and GFP/DsRed filters. Images are captured using AxioVision software and for each recipient, two images are taken with GFP or DsRed filter respectively. The images are all saved in .tif format and analyzed using ImageJ software.

Compound: O=C1Nc2cc(Br)ccc2C1=C1Nc2ccccc2C1=NO [BIO, 6-bromorindirubin-3′-oxime]
- score in the competitive transplant model (at 3 months): positive
- score in the competitive transplant model (at 4 weeks): positive
- engraftment signal in pilot screen of 10 bioactive compounds: enhanced signal above the rest of the chemicals tested
- average G/R: significantly increased
- percentage of positive recipients: significantly increased
- engraftment (green marrow incubated in vitro with 0.5 μM at room temperature for 2-4 hours): increase engraftment

Compound: CCCCC(C)(C)[C@H](O)/C=C/[C@H]1[C@H](O)CC(=O)[C@@H]1C/C=C\CCCC(=O)O [dmPGE2, 16-,16-dimethyl Prostaglandin E2]
- score in the competitive transplant model (at 3 months): positive
- score in the competitive transplant model (at 4 weeks): positive
- engraftment signal in pilot screen of 10 bioactive compounds: enhanced signal above the rest of the chemicals tested
- average G/R: significantly increased
- percentage of positive recipients: significantly increased
- engraftment (green marrow incubated in vitro with 10 μM at room temperature for 2-4 hours): increase engraftment
